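Each compound was tested at five concentrations against cells in 96-well plates for 48 hours. Abbreviation: GI50, concentration required for 50% inhibition of growth. TGI is the concentration that stops growth completely.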
Experiments:
Test in all cases: NCI-60 cell line screen, 48 h
[1] = tested on: SF-539 CNS
[2] = tested on: SN12C renal
[3] = tested on: RPMI-8226 leukemia
[4] = tested on: SW-620 colon
[5] = tested on: SF-295 CNS
[6] = tested on: 786-0 renal
[7] = tested on: MDA-MB-231 breast
[8] = tested on: OVCAR-4 ovarian
[9] = tested on: HOP-62 NSCLC
[10] = tested on: NCI-H226 lung
[11] = tested on: K-562 leukemia
[12] = tested on: DU-145 prostate
[13] = tested on: T-47D breast
[14] = tested on: NCI/ADR-RES ovarian
[15] = tested on: MCF7 breast
[16] = tested on: HCT-15 colon
[17] = tested on: NCI-H460 lung
[18] = tested on: OVCAR-3 ovarian
[19] = tested on: SK-MEL-28 melanoma
[20] = tested on: U251 CNS
[21] = tested on: OVCAR-5 ovarian
[22] = tested on: M14 melanoma
[23] = tested on: UO-31 renal
[24] = tested on: COLO 205 colon
[25] = tested on: EKVX NSCLC
[26] = tested on: UACC-62 melanoma
[27] = tested on: HS 578T breast
[28] = tested on: IGROV1 ovarian
[29] = tested on: CAKI-1 renal
[30] = tested on: NCI-H23 lung
[31] = tested on: A549 NSCLC
[32] = tested on: A498 renal
[33] = tested on: RXF 393 renal
[34] = tested on: LOX IMVI melanoma
[35] = tested on: HT29 colon
[36] = tested on: SF-268 CNS
[37] = tested on: OVCAR-8 ovarian
[38] = tested on: MDA-MB-435
[39] = tested on: HCT-116 colon
[40] = tested on: BT-549 breast
[41] = tested on: MALME-3M melanoma
[42] = tested on: SR leukemia
[43] = tested on: SK-OV-3 ovarian
[44] = tested on: MOLT-4 leukemia
[45] = tested on: SK-MEL-5 melanoma
[46] = tested on: HL-60(TB) leukemia
[47] = tested on: KM12 colon
[48] = tested on: SK-MEL-2 melanoma
[49] = tested on: ACHN renal
[50] = tested on: NCI-H522 lung
[51] = tested on: SNB-19 CNS
[52] = tested on: HCC-2998 colon
[53] = tested on: CCRF-CEM leukemia
[54] = tested on: UACC-257 melanoma
[55] = tested on: SNB-75 CNS
[56] = tested on: TK-10 renal
[57] = tested on: HOP-92 NSCLC
[58] = tested on: PC-3 prostate

With `O=CN1N=C(c2cccc(Nc3ccnc4cc(Cl)ccc34)c2)CC1c1ccc(Cl)cc1` (stereo not drawn) the GI50 [1] was 3.78 µM, the TGI [1] was 69.5 µM and the GI50 [2] was 3.86 µM. The TGI [2] was greater than 100 µM, the GI50 [3] was 2.45 µM and the TGI [3] was greater than 100 µM. It also gave a GI50 [4] of 0.557 µM, a TGI [4] greater than 100 µM and a GI50 [5] of 1.06 µM. For the same compound, the TGI [5] was 8.12 µM, the GI50 [6] was 4.73 µM and the TGI [6] was greater than 100 µM. The GI50 [7] was 2.12 µM, the TGI [7] was greater than 100 µM and the GI50 [8] was 4.13 µM. The TGI [8] was greater than 100 µM, the GI50 [9] was 1.91 µM and the TGI [9] was greater than 100 µM. It also gave a GI50 [10] greater than 100 µM, a TGI [10] greater than 100 µM and a GI50 [11] of 0.413 µM. The TGI [11] was greater than 100 µM, the GI50 [12] was 4.17 µM and the TGI [12] was greater than 100 µM. It also gave a GI50 [13] of 2.63 µM, a TGI [13] greater than 100 µM and a GI50 [14] of 0.759 µM. The TGI [14] was 3.94 µM, the GI50 [15] was 0.81 µM and the TGI [15] was greater than 100 µM. The GI50 [16] was 0.903 µM, the TGI [16] was greater than 100 µM and the GI50 [17] was 0.787 µM. The TGI [17] was greater than 100 µM, the GI50 [18] was 1.2 µM and the TGI [18] was 7.71 µM. The GI50 [19] was 5.63 µM, the TGI [19] was greater than 100 µM and the GI50 [20] was 1.29 µM. For the same compound, the TGI [20] was 20.7 µM, the GI50 [21] was greater than 100 µM and the TGI [21] was greater than 100 µM. For the same compound, the GI50 [22] was 1.04 µM, the TGI [22] was greater than 100 µM and the GI50 [23] was 0.878 µM. The TGI [23] was greater than 100 µM, the GI50 [24] was 1.39 µM and the TGI [24] was 6.67 µM. For the same compound, the GI50 [25] was greater than 100 µM, the TGI [25] was greater than 100 µM and the GI50 [26] was 1.63 µM. For the same compound, the TGI [26] was greater than 100 µM, the GI50 [27] was 1.97 µM and the TGI [27] was greater than 100 µM. For the same compound, the GI50 [28] was 0.757 µM, the TGI [28] was greater than 100 µM and the GI50 [29] was 0.954 µM. It also gave a TGI [29] greater than 100 µM, a GI50 [30] of 2.48 µM and a TGI [30] greater than 100 µM. For the same compound, the GI50 [31] was 0.941 µM, the TGI [31] was greater than 100 µM and the GI50 [32] was 0.832 µM. For the same compound, the TGI [32] was 6.18 µM, the GI50 [33] was 3.08 µM and the TGI [33] was greater than 100 µM. It also gave a GI50 [34] of 1.56 µM, a TGI [34] of 10.3 µM and a GI50 [35] of 0.477 µM. The TGI [35] was 3.65 µM, the GI50 [36] was 4.37 µM and the TGI [36] was greater than 100 µM. The GI50 [37] was 3.8 µM, the TGI [37] was greater than 100 µM and the GI50 [38] was 0.293 µM. It also gave a TGI [38] of 24.9 µM, a GI50 [39] of 0.597 µM and a TGI [39] of 5.29 µM. For the same compound, the GI50 [40] was 1.36 µM, the TGI [40] was 16.2 µM and the GI50 [41] was 1.63 µM. The TGI [41] was greater than 100 µM, the GI50 [42] was 0.367 µM and the TGI [42] was 2.13 µM. For the same compound, the GI50 [43] was 3.48 µM, the TGI [43] was 56.9 µM and the GI50 [44] was 1.92 µM. It also gave a TGI [44] of 80.3 µM, a GI50 [45] of 1.86 µM and a TGI [45] of 10.6 µM. The GI50 [46] was 1.1 µM, the TGI [46] was 3.81 µM and the GI50 [47] was 0.591 µM. The TGI [47] was greater than 100 µM, the GI50 [48] was 2.05 µM and the TGI [48] was greater than 100 µM. For the same compound, the GI50 [49] was 5.17 µM, the TGI [49] was greater than 100 µM and the GI50 [50] was 0.798 µM. For the same compound, the TGI [50] was 70.1 µM, the GI50 [51] was 3.48 µM and the TGI [51] was greater than 100 µM. The GI50 [52] was 3.36 µM, the TGI [52] was greater than 100 µM and the GI50 [53] was 2.34 µM. It also gave a TGI [53] greater than 100 µM.

In the case of `CN(C)c1ccc(-c2ccc(-c3ccc(C(=N)N)cn3)o2)cc1`, the GI50 [54] is reported as 1.77 µM, the TGI [54] is reported as 3.43 µM and the GI50 [1] is reported as 1.54 µM. The TGI [1] was 2.9 µM, the GI50 [4] was 0.774 µM and the TGI [4] was 2.41 µM. For the same compound, the GI50 [5] was 2 µM, the TGI [5] was 3.81 µM and the GI50 [7] was 1.8 µM. The TGI [7] was 3.77 µM, the GI50 [9] was 1.74 µM and the TGI [9] was 3.32 µM. It also gave a GI50 [55] of 1.59 µM, a TGI [55] of 3 µM and a GI50 [12] of 1.72 µM. It also gave a TGI [12] of 3.18 µM, a GI50 [13] of 1.73 µM and a TGI [13] of 3.67 µM. The GI50 [56] was 1.95 µM, the TGI [56] was 3.39 µM and the GI50 [15] was 1.61 µM. For the same compound, the TGI [15] was 3.52 µM, the GI50 [16] was 1.36 µM and the TGI [16] was 2.98 µM. For the same compound, the GI50 [17] was 1.35 µM, the TGI [17] was 3.05 µM and the GI50 [18] was 1.76 µM. For the same compound, the TGI [18] was 3.24 µM, the GI50 [19] was 1.76 µM and the TGI [19] was 3.36 µM. It also gave a GI50 [20] of 1.53 µM, a TGI [20] of 2.91 µM and a GI50 [21] of 1.62 µM. The TGI [21] was 3.02 µM, the GI50 [22] was 1.85 µM and the TGI [22] was 3.47 µM. The GI50 [23] was 1.48 µM, the TGI [23] was 2.91 µM and the GI50 [24] was 1.04 µM. The TGI [24] was 2.28 µM, the GI50 [26] was 1.76 µM and the TGI [26] was 3.34 µM. For the same compound, the GI50 [57] was 1.27 µM, the TGI [57] was 2.87 µM and the GI50 [27] was 1.9 µM. The TGI [27] was 4.07 µM, the GI50 [28] was 1.89 µM and the TGI [28] was 3.6 µM. The GI50 [31] was 1.89 µM, the TGI [31] was 3.75 µM and the GI50 [58] was 1.5 µM. For the same compound, the TGI [58] was 2.93 µM, the GI50 [35] was 0.479 µM and the TGI [35] was 1.74 µM. It also gave a GI50 [38] of 1.24 µM, a TGI [38] of 2.5 µM and a GI50 [39] of 1.47 µM. It also gave a TGI [39] of 2.92 µM, a GI50 [40] of 1.8 µM and a TGI [40] of 3.5 µM. The GI50 [41] was 2.04 µM, the TGI [41] was 3.93 µM and the GI50 [42] was 0.378 µM. It also gave a TGI [42] of 2.01 µM, a GI50 [43] of 1.88 µM and a TGI [43] of 3.28 µM. The GI50 [45] was 1.58 µM, the TGI [45] was 3 µM and the GI50 [46] was 1.76 µM. It also gave a TGI [46] of 3.73 µM, a GI50 [47] of 1.43 µM and a TGI [47] of 3.01 µM. For the same compound, the GI50 [48] was 1.96 µM, the TGI [48] was 3.65 µM and the GI50 [49] was 1.75 µM. For the same compound, the TGI [49] was 3.13 µM, the GI50 [50] was 1.84 µM and the TGI [50] was 3.44 µM. For the same compound, the GI50 [51] was 1.87 µM, the TGI [51] was 3.64 µM and the GI50 [53] was 1.8 µM. For the same compound, the TGI [53] was 4.36 µM.
